Test results published in the NIST ThermoML archive (doi:10.1021/je049582g).

Assay: cn = amount concentration of the nth substance listed, in mol/dm3
Conditions: 298 K, 101 kPa, Liquid, holographic interferometric technique

C[C@H](N)C(=O)O [(S)-2-aminopropanoic acid] + O
binary diffusion coefficient (c1 = 0.0997): 9.04e-10 m2/s | binary diffusion coefficient (c1 = 0.2996): 8.59e-10 m2/s | binary diffusion coefficient (c1 = 0.4996): 8.34e-10 m2/s | binary diffusion coefficient (c1 = 0.7002): 8.12e-10 m2/s | binary diffusion coefficient (c1 = 0.9006): 7.92e-10 m2/s

CC[C@@H](N)C(=O)O [(R)-(-)-α-aminobutyric acid] + O
binary diffusion coefficient (c1 = 0.2): 8e-10 m2/s | binary diffusion coefficient (c1 = 0.4): 7.72e-10 m2/s | binary diffusion coefficient (c1 = 0.6): 7.45e-10 m2/s | binary diffusion coefficient (c1 = 0.8): 7.2e-10 m2/s | binary diffusion coefficient (c1 = 1): 6.97e-10 m2/s

OC[C@H]1O[C@@](CO)(O[C@H]2O[C@H](CO)[C@@H](O)[C@H](O)[C@H]2O)[C@@H](O)[C@@H]1O [D-sucrose] + O
binary diffusion coefficient (c1 = 0.1): 4.89e-10 m2/s | binary diffusion coefficient (c1 = 0.3): 4.27e-10 m2/s | binary diffusion coefficient (c1 = 0.5): 3.67e-10 m2/s | binary diffusion coefficient (c1 = 0.7): 3.06e-10 m2/s

C[C@@H](O)[C@H](N)C(=O)O [L-threonine] + O
binary diffusion coefficient (c1 = 0.1006): 7.86e-10 m2/s | binary diffusion coefficient (c1 = 0.2002): 7.58e-10 m2/s | binary diffusion coefficient (c1 = 0.2994): 7.42e-10 m2/s | binary diffusion coefficient (c1 = 0.4002): 7.25e-10 m2/s | binary diffusion coefficient (c1 = 0.5003): 7.15e-10 m2/s

CC(C)[C@H](N)C(=O)O [L-valine] + O
binary diffusion coefficient (c1 = 0.1): 7.12e-10 m2/s | binary diffusion coefficient (c1 = 0.2): 6.79e-10 m2/s | binary diffusion coefficient (c1 = 0.2999): 6.55e-10 m2/s | binary diffusion coefficient (c1 = 0.4): 6.45e-10 m2/s | binary diffusion coefficient (c1 = 0.5001): 6.33e-10 m2/s

CC(N)C(=O)O (stereo not drawn) [DL-2-aminopropanoic acid] + O
binary diffusion coefficient (c1 = 0.0271): 9.11e-10 m2/s | binary diffusion coefficient (c1 = 0.0281): 9.11e-10 m2/s | binary diffusion coefficient (c1 = 0.2233): 8.84e-10 m2/s | binary diffusion coefficient (c1 = 0.4374): 8.56e-10 m2/s | binary diffusion coefficient (c1 = 0.6786): 8.27e-10 m2/s | binary diffusion coefficient (c1 = 0.9025): 8.02e-10 m2/s | binary diffusion coefficient (c1 = 1.195): 7.72e-10 m2/s | binary diffusion coefficient (c1 = 1.541): 7.41e-10 m2/s

N[C@@H](CO)C(=O)O [L-serine] + O
binary diffusion coefficient (c1 = 0.01): 9.16e-10 m2/s | binary diffusion coefficient (c1 = 0.0301): 8.91e-10 m2/s | binary diffusion coefficient (c1 = 0.05): 8.79e-10 m2/s | binary diffusion coefficient (c1 = 0.07): 8.71e-10 m2/s | binary diffusion coefficient (c1 = 0.0902): 8.65e-10 m2/s

NCC(=O)O [2-aminoacetic acid] + O
binary diffusion coefficient (c1 = 0.1057): 1.04e-09 m2/s | binary diffusion coefficient (c1 = 0.3056): 1e-09 m2/s | binary diffusion coefficient (c1 = 0.5045): 9.73e-10 m2/s | binary diffusion coefficient (c1 = 0.7064): 9.57e-10 m2/s | binary diffusion coefficient (c1 = 0.9045): 9.43e-10 m2/s

N=C(N)NCCC[C@H](N)C(=O)O [L-arginine] + O
binary diffusion coefficient (c1 = 0.1002): 7.01e-10 m2/s | binary diffusion coefficient (c1 = 0.2): 6.61e-10 m2/s | binary diffusion coefficient (c1 = 0.2949): 6.36e-10 m2/s | binary diffusion coefficient (c1 = 0.4001): 6.21e-10 m2/s | binary diffusion coefficient (c1 = 0.5): 6.04e-10 m2/s

CC[C@H](C)[C@H](N)C(=O)O [2-amino-3-methylpentanoic acid] + O
binary diffusion coefficient (c1 = 0.0101): 7.61e-10 m2/s | binary diffusion coefficient (c1 = 0.0203): 7.5e-10 m2/s | binary diffusion coefficient (c1 = 0.0301): 7.39e-10 m2/s | binary diffusion coefficient (c1 = 0.0399): 7.32e-10 m2/s | binary diffusion coefficient (c1 = 0.05): 7.25e-10 m2/s

NCCC(=O)O [3-aminopropanoic acid] + O
binary diffusion coefficient (c1 = 0.0281): 9.36e-10 m2/s | binary diffusion coefficient (c1 = 0.0288): 9.35e-10 m2/s | binary diffusion coefficient (c1 = 0.0299): 9.34e-10 m2/s | binary diffusion coefficient (c1 = 0.0344): 9.33e-10 m2/s | binary diffusion coefficient (c1 = 0.111): 9.18e-10 m2/s | binary diffusion coefficient (c1 = 0.5605): 8.67e-10 m2/s | binary diffusion coefficient (c1 = 0.5886): 8.68e-10 m2/s | binary diffusion coefficient (c1 = 1.123): 8.18e-10 m2/s | binary diffusion coefficient (c1 = 1.766): 7.79e-10 m2/s | binary diffusion coefficient (c1 = 2.34): 7.52e-10 m2/s | binary diffusion coefficient (c1 = 2.665): 7.4e-10 m2/s | binary diffusion coefficient (c1 = 3.008): 7.2e-10 m2/s | binary diffusion coefficient (c1 = 3.931): 6.63e-10 m2/s | binary diffusion coefficient (c1 = 4.543): 6.25e-10 m2/s | binary diffusion coefficient (c1 = 5.419): 5.6e-10 m2/s

NC(N)=O [urea] + O
binary diffusion coefficient (c1 = 0.125): 1.37e-09 m2/s | binary diffusion coefficient (c1 = 0.2475): 1.36e-09 m2/s | binary diffusion coefficient (c1 = 0.5): 1.34e-09 m2/s | binary diffusion coefficient (c1 = 0.75): 1.33e-09 m2/s | binary diffusion coefficient (c1 = 0.9782): 1.31e-09 m2/s | binary diffusion coefficient (c1 = 1): 1.31e-09 m2/s | binary diffusion coefficient (c1 = 1.5): 1.27e-09 m2/s | binary diffusion coefficient (c1 = 2): 1.24e-09 m2/s | binary diffusion coefficient (c1 = 3): 1.19e-09 m2/s | binary diffusion coefficient (c1 = 4): 1.14e-09 m2/s

[Cl-].[K+] [potassium chloride] + O
binary diffusion coefficient (c1 = 0.33): 1.83e-10 m2/s
